Series [1] can be described thus: Plasma concentration in mice after 4 hrs of administration of 30 mg/kg, po. Format: ADME, organism-based. The arrangement: dose 30 mg/kg, route oral. The following applies: mouse.
The nature of series [2]: Plasma concentration in mice after 1 hr of administration of 30 mg/kg, po. It counts as ADME, organism-based. Set-up: dose 30 mg/kg, route oral. The conditions noted are these: mouse.
Series [3] concerns the target T1, Heparanase (Homo sapiens) (UniProt Q9Y251).
T1 sequence (whole entry): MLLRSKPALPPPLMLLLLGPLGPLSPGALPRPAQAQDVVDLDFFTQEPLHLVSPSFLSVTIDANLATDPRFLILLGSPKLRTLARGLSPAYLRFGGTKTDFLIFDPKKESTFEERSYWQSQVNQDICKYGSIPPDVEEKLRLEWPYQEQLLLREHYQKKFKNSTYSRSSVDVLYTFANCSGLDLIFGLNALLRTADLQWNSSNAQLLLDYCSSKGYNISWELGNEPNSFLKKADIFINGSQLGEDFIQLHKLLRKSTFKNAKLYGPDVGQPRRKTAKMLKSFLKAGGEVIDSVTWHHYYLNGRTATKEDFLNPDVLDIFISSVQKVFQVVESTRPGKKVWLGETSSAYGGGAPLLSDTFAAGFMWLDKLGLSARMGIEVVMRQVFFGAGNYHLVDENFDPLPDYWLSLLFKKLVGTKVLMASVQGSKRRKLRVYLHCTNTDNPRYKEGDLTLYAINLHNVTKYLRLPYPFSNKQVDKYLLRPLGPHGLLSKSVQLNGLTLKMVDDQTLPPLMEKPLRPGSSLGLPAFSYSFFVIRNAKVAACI
The series can be described thus: Inhibitory activity against heparanase from human platelets at 25 uM.

For the next series, the target named is T2, Heparanase (Homo sapiens, UniProt Q9Y251).
T2 sequence (Q9Y251 whole entry): T1 sequence (whole entry)
The series can be described thus: Inhibitory activity against heparanase from human platelets.

Series [4] can be described thus: Plasma concentration in mice after 1 hr of administration of 50 mg/kg, ip. Format: ADME, organism-based. The conditions noted are these: mouse. Set-up: dose 50 mg/kg, route intraperitoneal.
Series [5] in a line: Plasma concentration in mice after 4 hrs of administration of 50 mg/kg, ip. Set-up: dose 50 mg/kg, route intraperitoneal. Format: ADME, organism-based. The following applies: mouse.
Series [6] concerns the target T1, Heparanase (Homo sapiens). The series is described as follows: Inhibitory activity against heparanase from human platelets at 0.83 uM.

Compound `COc1ccc(C(=O)Nc2ccc(CNc3ccc(-c4nc5ccccc5[nH]4)cn3)cc2)cc1Br` gave a concentration at 4 h in series [1] of 5500 nM. The concentration at 1 h in series [2] is 3800 nM.
Compound `CCOc1ccc(C(=O)Nc2ccc(-c3nc4cc(OC)c(OC)cc4[nH]3)cc2)cc1Br` gave an inhibition in series [3] of 35%.
For `COc1ccc(C(=O)Nc2ccc(-c3nc4ccccc4[nH]3)cc2)cc1Cl`, the IC50 on Heparanase was greater than 15 µM.
At Heparanase, `COc1ccc(C(=O)N(C)c2ccc(-c3nc4ccccc4[nH]3)cc2)cc1Br` came in with an IC50 greater than 15 µM.
The same measure, in the same setting: under `COc1ccc(C(=O)Nc2ccc(-c3nc4ccccc4[nH]3)cc2)cc1F` stands greater than 15 µM.
In series [4], `COc1ccc(C(=O)Nc2ccc(-c3nc4ccccc4[nH]3)cc2)cc1Br` gave a concentration at 1 h of 2240 nM. Besides, the concentration at 4 h in series [5] is 670 nM.
In series [6], `COc1ccc(C(=O)Nc2ccc(CNc3ccc(Cc4nc5ccccc5[nH]4)cc3)cc2)cc1Br` showed an inhibition of less than 10%.
Same read-out and setting: under `COc1ccc(C(=O)Nc2cccc(CNc3ccc(-c4nc5ccccc5[nH]4)cc3)c2)cc1Br` stands less than 10%.
With `COc1ccc(S(=O)(=O)Nc2ccc(-c3nc4ccccc4[nH]3)cc2)cc1Br`, the IC50 on Heparanase was greater than 15 µM.
For `COc1ccc(C(=O)Nc2ccc(CNc3cccc(-c4nc5ccccc5[nH]4)c3)cc2)cc1Br`, the inhibition in series [6] is less than 10%.
Compound `COc1ccc(NC(=O)c2ccc(-c3nc4ccccc4[nH]3)cc2)cc1Br` displayed an IC50 against Heparanase greater than 15 µM.
Still for that read-out and setting: under `COc1ccc(CC(=O)Nc2ccc(-c3nc4ccccc4[nH]3)cc2)cc1Br` stands greater than 15 µM.
For `CCOc1ccc(C(=O)Nc2ccc(-c3nc4ccccc4[nH]3)cc2)cc1Br`, in series [4], the concentration at 1 h was 530 nM. In series [5], the concentration at 4 h was found to be 380 nM.
`CCOc1ccc(C(=O)Nc2ccc(-c3nc4cc(Cl)c(Cl)cc4[nH]3)cc2)cc1Br`: the inhibition in series [3] was determined as 30%.
The same measure, in the same setting: under `CCOc1ccc(C(=O)Nc2ccc(-c3nc4cc(OC)ccc4[nH]3)cc2)cc1Br` stands 73%.
Still for that read-out and setting: the same measure for `CCOc1ccc(C(=O)Nc2ccc(-c3nc4cc(C)c(Cl)cc4[nH]3)cc2)cc1Br`: 30%.
As to `COc1ccc(CNc2ccc(-c3nc4ccccc4[nH]3)cc2)cc1Br`, on Heparanase, the IC50 is greater than 15 µM.

As a reminder, the inhibition is the share of the control response that was lost under treatment. The low end stands for a weak effect, the high end for a strong effect. The term IC50 denotes the concentration that gives 50% inhibition. A low value points to greater potency.

Values taken from ChEMBL document CHEMBL1147775, “N-(4-{[4-(1H-Benzoimidazol-2-yl)-arylamino]-methyl}-phenyl)-benzamide derivatives as small molecule heparanase inhibitors” (Bioorg Med Chem Lett, 2006).
